# Source: US11512091B2, “Crystal of benzoxazole derivative” (MEIJI SEIKA PHARMA CO., LTD., priority 2018, dated 2022)
# How the values were obtained:
# [1] = Stability test (storage of crystals, chemical purity by HPLC); type: physicochemical; details: for chemical stability (in words): thermal stability test, photostability test, accelerated stability test
# Description: The I type crystal and the II type crystal of the compound represented by formula (1) were put in glass bottles (in about 300 mg each) and stored under various conditions. After the storage period, the chemical purity of the samples taken out was measured by HPLC. The conditions of each test were as follows.
# Thermal stability test: 60° C., hermetically sealed, a period of 3 weeks
# Photostability test: 25° C., 1.2 million lux hours (2,000 lux, for 25 days)
# Accelerated stability test (hermetically sealed): 40° C., 75% RH*, a period of 1 month
# Accelerated stability test (opened): 40° C., 75% RH*, a period of 1 month
# As the result of evaluation of each stability, the amount of the compound represented by formula (1) contained in the crystal is presented in Table 1 as a residual ratio (a HPLC area percentage ratio to the initial value, expressed in percentage).
# [2] = Hygroscopicity test (isothermal water vapor adsorption, DVS); type: physicochemical; details: at 95% RH, 25° C., relative to weight equilibrium value at 0% RH
# Description: Isothermal adsorption measurement of the I type crystal and the II type crystal of the compound represented by formula (1) was performed, using a water vapor adsorption measurement instrument (available from Surface Measurement Systems Ltd., DVS ADVANTAGE 1) (with a sample of about 10 mg, at 25° C., at from 0% RH through 95% RH). As the result of evaluation of hygroscopicity, a weight increase rate at 95% RH (weight increase from initial value/initial value×100, *initial value: weight equilibrium value at 0% RH) is presented in Table 2.
# PDE4 = experiment: Evaluation of PDE4 inhibition (Scintillation Proximity Assay); type: biochemical; details: SPA, [3H]-cAMP, room temperature 120 minutes; read-out: PDE4 inhibiting activity (the concentration at an inhibition rate of 50%)
# Description: The PDE4 inhibiting activity was measured in the following manner, employing Scintillation Proximity Assay (SPA). The specimen compound dissolved in dimethyl sulfoxide and diluted 10 fold with a buffer solution for reaction containing 50 mM Tris-HCl (pH of 7.4), 8.3 mMMgCl2, 1.7 mM EGTA, and 3 mg/mL bovine serum albumin (BSA) was added in 10 microliters in a 96-well assay plate. After PDE4 diluted 375 fold with the buffer solution for reaction was further added in 50 microliters, a [2,8-^3H]-Adenosine-3′,5′-cyclic phosphate triethylammonium salt diluted 1,000 fold with the buffer solution for reaction was added in 40 microliters, and the resultant was left to stand still at room temperature for 120 minutes. […] Subsequently, radioactivity was measured with a liquid scintillation counter for a 96-well plate. The inhibition rate of the compound represented by formula (1) to a control was calculated according to the following calculation formula, where the blank was prepared as the buffer solution for reaction only, with no enzyme preparation, and the control was prepared with the enzyme preparation and with only dimethyl sulfoxide instead of the specimen solution. […]
# [3] = Accelerated stability test (hermetically sealed): 40° C., 75% RH, 1 month
# [4] = Accelerated stability test (opened): 40° C., 75% RH, 1 month
# [5] = Photostability test: 25° C., 1.2 million lux hours (2,000 lux, 25 days)
# [6] = Thermal stability test: 60° C., hermetically sealed, 3 weeks
SMILES,"Residual ratio (%) of compound represented by formula (1) [1, 3] [%]","Residual ratio (%) of compound represented by formula (1) [1, 4] [%]",Residual ratio (%) of compound represented by formula (1) ([1]; Initial value) [%],"Residual ratio (%) of compound represented by formula (1) [1, 5] [%]","Residual ratio (%) of compound represented by formula (1) [1, 6] [%]",chemical stability (in words) [1],Weight increase rate (%) [2] [%],IC50 (PDE4) [nM]
"CC(C)(O)C(F)(F)Oc1ccc(-c2nccs2)c2oc(N3CC4CC(C3)N4)nc12 [II type crystal, 1-((2-(3,6-diazabicyclo[3.1.1]heptan-3-yl)-7-(thiazol-2-yl)benzo[d]oxazol-4-yl)oxy)-1,1-difluoro-2-methylpropan-2-ol]",100.1,100.0,100.0,99.5,100.0,sufficient chemical stability,10.7,–
"CC(C)(O)C(F)(F)Oc1ccc(-c2nccs2)c2oc(N3CC4CC(C3)N4)nc12 [compound represented by formula (1), 1-((2-(3,6-diazabicyclo[3.1.1]heptan-3-yl)-7-(thiazol-2-yl)benzo[d]oxazol-4-yl)oxy)-1,1-difluoro-2-methylpropan-2-ol]",–,–,–,–,–,–,–,< 100
"CC(C)(O)C(F)(F)Oc1ccc(-c2nccs2)c2oc(N3CC4CC(C3)N4)nc12 [I type crystal, 1-((2-(3,6-diazabicyclo[3.1.1]heptan-3-yl)-7-(thiazol-2-yl)benzo[d]oxazol-4-yl)oxy)-1,1-difluoro-2-methylpropan-2-ol]",100.1,100.1,100.0,100.1,99.8,sufficient chemical stability,0.6,–
